Activity calls are given as the source filed them.
Target: Cytochrome P450 3A4 (Homo sapiens, UniProt P08684);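 also: CYP3A4 tested as one member of a cytochrome P450 panel screen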
Conditions: not given

Sequence of Cytochrome P450 3A4 (P08684 whole entry): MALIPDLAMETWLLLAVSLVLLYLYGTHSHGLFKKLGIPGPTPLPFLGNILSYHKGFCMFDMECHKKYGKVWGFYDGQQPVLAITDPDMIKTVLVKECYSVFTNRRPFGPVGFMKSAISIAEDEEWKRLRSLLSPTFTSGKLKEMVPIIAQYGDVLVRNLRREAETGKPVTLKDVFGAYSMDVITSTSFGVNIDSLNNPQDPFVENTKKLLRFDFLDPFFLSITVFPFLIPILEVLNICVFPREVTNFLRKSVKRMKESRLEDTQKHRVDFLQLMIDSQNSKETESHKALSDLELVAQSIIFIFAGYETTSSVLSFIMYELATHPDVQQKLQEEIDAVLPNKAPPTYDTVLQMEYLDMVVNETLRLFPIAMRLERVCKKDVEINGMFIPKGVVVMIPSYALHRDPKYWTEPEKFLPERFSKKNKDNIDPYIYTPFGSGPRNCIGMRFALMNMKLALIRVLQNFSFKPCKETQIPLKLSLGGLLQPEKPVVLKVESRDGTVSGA

**Q.** With `Cc1ccc(/N=C/c2cc(C)n(C3CCCC3)c2C)cc1` as the compound, how does the AC50 read?
**A.** Its AC50 is 20 µM (inconclusive).

**Q.** With `CO/N=C/C(=C\Nc1ccccc1)c1ncc(C(F)(F)F)cc1Cl` as the compound, how does the AC50 read?
**A.** Its AC50 is 22.4 µM (inconclusive).

Target: Cytochrome P450 2D6 (Homo sapiens, UniProt P10635);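 also: CYP2D6 member of a cytochrome P450 panel assay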
Conditions: not given

Sequence of Cytochrome P450 2D6 (P10635 whole entry): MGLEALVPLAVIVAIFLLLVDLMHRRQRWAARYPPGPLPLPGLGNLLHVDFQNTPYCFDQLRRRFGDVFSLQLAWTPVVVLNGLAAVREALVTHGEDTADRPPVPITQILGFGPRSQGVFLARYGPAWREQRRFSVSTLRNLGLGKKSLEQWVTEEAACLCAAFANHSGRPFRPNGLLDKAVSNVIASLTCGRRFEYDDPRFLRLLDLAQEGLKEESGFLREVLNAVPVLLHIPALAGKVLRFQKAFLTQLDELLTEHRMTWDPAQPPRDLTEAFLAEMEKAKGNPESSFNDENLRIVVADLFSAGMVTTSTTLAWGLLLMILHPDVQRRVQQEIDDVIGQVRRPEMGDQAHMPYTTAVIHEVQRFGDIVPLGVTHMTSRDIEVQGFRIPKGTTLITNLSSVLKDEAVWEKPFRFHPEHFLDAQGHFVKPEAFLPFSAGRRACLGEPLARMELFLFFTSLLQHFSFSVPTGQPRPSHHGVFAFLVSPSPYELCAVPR

**Q.** With `Oc1c(C(O)(c2ccccc2)c2ccc3ccccc3c2O)ccc2ccccc12` as the compound, how does the AC50 read?
**A.** The AC50 was 3.98 µM (inconclusive).

**Q.** With `CC(=O)Nc1cccc(C(=O)OC(C(=O)c2ccc(C)c(C)c2)c2ccccc2)c1` (stereo not drawn) as the compound, how does the AC50 read?
**A.** Its AC50 is 17.8 µM (inconclusive).

Target: Cytochrome P450 2C9 (Homo sapiens, UniProt P11712)
Conditions: not given

Sequence of Cytochrome P450 2C9 (P11712 whole entry): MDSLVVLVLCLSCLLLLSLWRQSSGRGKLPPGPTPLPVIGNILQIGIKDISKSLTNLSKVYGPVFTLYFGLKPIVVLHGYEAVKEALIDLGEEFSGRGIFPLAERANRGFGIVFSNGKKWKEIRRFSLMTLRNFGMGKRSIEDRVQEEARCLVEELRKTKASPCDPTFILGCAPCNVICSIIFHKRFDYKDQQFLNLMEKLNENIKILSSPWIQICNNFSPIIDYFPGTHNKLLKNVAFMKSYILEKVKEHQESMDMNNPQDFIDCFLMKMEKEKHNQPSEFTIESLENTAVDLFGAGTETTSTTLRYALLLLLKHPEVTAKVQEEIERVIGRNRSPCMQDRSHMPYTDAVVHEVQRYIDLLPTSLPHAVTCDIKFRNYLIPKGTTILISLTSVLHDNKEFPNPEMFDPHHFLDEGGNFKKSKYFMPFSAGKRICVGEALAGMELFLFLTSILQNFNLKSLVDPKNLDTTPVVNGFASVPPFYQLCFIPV

**Q.** With `CCCCOC(=O)CSCC(=O)Nc1cc(C)on1` as the compound, how does the AC50 read?
**A.** Its AC50 is 2.51 µM (inconclusive).

Target: T1, Streptokinase A (Streptococcus pyogenes serotype M1, UniProt P10520)
T1 sequence (P10520 whole entry): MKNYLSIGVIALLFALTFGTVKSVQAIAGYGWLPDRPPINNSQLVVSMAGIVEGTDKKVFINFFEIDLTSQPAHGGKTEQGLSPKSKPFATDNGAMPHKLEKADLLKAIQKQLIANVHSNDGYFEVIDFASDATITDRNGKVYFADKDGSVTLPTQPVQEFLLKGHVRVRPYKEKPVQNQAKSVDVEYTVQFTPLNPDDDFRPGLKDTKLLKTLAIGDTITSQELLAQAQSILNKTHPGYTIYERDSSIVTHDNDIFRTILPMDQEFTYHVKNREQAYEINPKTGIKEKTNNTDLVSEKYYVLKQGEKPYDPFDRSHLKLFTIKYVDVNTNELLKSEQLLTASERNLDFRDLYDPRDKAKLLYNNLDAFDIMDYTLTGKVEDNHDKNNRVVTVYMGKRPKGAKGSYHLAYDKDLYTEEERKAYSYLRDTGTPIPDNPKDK
Assay: S. pyogenes streptokinase expression inhibitors, potency, dose response, plasminogen activation absorbance, OD405 (AID 1914);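 also: secreted streptokinase activity via plasminogen activation per viability signal from cell pellet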
Format: functional, Streptococcus pyogenes M1 GAS
Conditions: not given

**Q.** For `Cc1cc2nc(CSc3ccccc3)cc(O)n2n1`, which EC50 is on record?
**A.** The EC50 was > 150 µM (not active).

Target: T2, Cytochrome P450 1A2 (Homo sapiens, UniProt P05177);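 also: PubChem cytochrome P450 panel assay, CYP1A2 panel member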
T2 sequence (P05177 whole entry): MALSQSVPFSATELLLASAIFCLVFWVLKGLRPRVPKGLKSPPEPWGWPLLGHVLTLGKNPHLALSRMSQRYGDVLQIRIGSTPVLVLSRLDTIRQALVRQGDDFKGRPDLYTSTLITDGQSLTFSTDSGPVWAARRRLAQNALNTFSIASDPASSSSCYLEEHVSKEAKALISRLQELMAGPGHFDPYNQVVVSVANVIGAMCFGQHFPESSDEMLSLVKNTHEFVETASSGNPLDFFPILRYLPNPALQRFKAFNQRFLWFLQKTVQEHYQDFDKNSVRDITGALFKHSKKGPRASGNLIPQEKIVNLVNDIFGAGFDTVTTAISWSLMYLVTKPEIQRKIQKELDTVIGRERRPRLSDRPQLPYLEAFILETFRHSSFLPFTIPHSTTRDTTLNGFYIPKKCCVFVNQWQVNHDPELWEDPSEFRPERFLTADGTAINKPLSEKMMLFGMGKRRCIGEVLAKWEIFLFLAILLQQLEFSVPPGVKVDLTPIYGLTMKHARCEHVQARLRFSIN
Conditions: not given

**Q.** For `CCNc1ncc2nc(-c3ccc(Cl)cc3)c(=O)n(-c3ccccc3)c2n1`, which AC50 is on record?
**A.** The AC50 was 1 µM (inconclusive).

**Q.** For `COC(=O)[C@@]1(Cc2ccccc2)[C@H]2c3cc(C(=O)N4CCCC4)n(Cc4c(CO)ncc(C)c4O)c3C[C@H]2CN1C(=O)c1ccccc1`, which AC50 is on record?
**A.** The AC50 was 5.01 µM (inconclusive).

**Q.** For `Oc1c(C(O)(c2ccccc2)c2ccc3ccccc3c2O)ccc2ccccc12`, which AC50 is on record?
**A.** Its AC50 is 1 µM (inconclusive).

**Q.** For `CC(=O)Nc1cccc(C(=O)OC(C(=O)c2ccc(C)c(C)c2)c2ccccc2)c1` (stereo not drawn), which AC50 is on record?
**A.** The AC50 was 22.4 µM (inconclusive).

**Q.** Which AC50 does the source give for `CC1(C)Cc2c(sc3c2C(=O)N(c2ccccc2)C2=NCCN23)CS1` here?
**A.** Its AC50 is 22.4 µM (inconclusive).

**Q.** For `CCOC(=O)c1sc2c(c1C)c(=O)c(C(=O)OCC)cn2CC`, which AC50 is on record?
**A.** The AC50 was 25.1 µM (inconclusive).

**Q.** Which AC50 does the source give for `CC(=O)NCCNc1ncnc2ccc(-c3ccc(C(=O)N(C)C)cc3)cc12` here?
**A.** The AC50 was 25.1 µM (inconclusive).

**Q.** For `O=C(CSc1nnc(CNc2ccc(F)cc2)o1)N1c2ccccc2Sc2ccccc21`, which AC50 is on record?
**A.** The AC50 was 10 µM (inconclusive).

**Q.** With `CCCCOC(=O)CSCC(=O)Nc1cc(C)on1` as the compound, how does the AC50 read?
**A.** Its AC50 is 25.1 µM (inconclusive).

**Q.** Which AC50 does the source give for `O=C(O)[C@H]1CN(CCCP(=O)(O)O)CCN1` here?
**A.** Its AC50 is 39.8 µM (inconclusive).

Tested on: not listed separately
Assay: Luminescence Cell-Based Dose Retest to Confirm Inhibitors of Cancer Stem Cells. [Related pubchem assays (depositor defined):AID2717, AID2721]
Format: functional
Conditions: Homo sapiens

**Q.** Which AC50 does the source give for `COc1ccc(/C=C2\C(=O)c3ccccc3OC2c2ccccc2)cc1` (stereo not drawn) here?
**A.** Its AC50 is 1.12 µM (active).

**Q.** For `OCCCNc1nc(-c2ccccc2)c2cc(Br)ccc2n1`, which AC50 is on record?
**A.** The AC50 was 24 µM (active).

**Q.** Which AC50 does the source give for `O=C(c1ccc(CSc2ccccc2)cc1)N1CCN(c2ccccc2)CC1` here?
**A.** The AC50 was 3.26 µM (active).

**Q.** For `O=C1C2C(c3ccccc3)CC=CC2[C@H](c2ccc(C(F)(F)F)cc2)N1Cc1ccccc1` (stereo partly drawn), which AC50 is on record?
**A.** Its AC50 is 5.21 µM (active).

**Q.** Which AC50 does the source give for `CC(C)(C)N(Cc1ccccc1)C(=O)c1cc2ccccc2o1` here?
**A.** The AC50 was 0.407 µM (active).

**Q.** Which AC50 does the source give for `O=C(Nc1ccc2c(c1)OCO2)c1cc(-c2cccc(O)c2)on1` here?
**A.** The AC50 was 0.715 µM (active).

**Q.** With `COc1ccc(-c2cc([C@H]3[C@@H]4C=CCC[C@@]4(C)C(=O)N3Cc3ccccc3)ccc2F)cc1OC` as the compound, how does the AC50 read?
**A.** The AC50 was 3.92 µM (active).

**Q.** With `CCCC(c1nnnn1CC1CCCO1)N1CCN(c2cc(Cl)ccc2C)CC1` (stereo not drawn) as the compound, how does the AC50 read?
**A.** The AC50 was 3.53 µM (active).

**Q.** Which AC50 does the source give for `COc1cccc(-c2sc3ccc(OC)cc3c2C#CC2(O)CCCCC2)c1` here?
**A.** Its AC50 is 3.74 µM (active).

**Q.** For `Oc1nc(Nc2cccc(Cl)c2)sc1/C=C1\C=Nc2ccccc21`, which AC50 is on record?
**A.** The AC50 was 1.91 µM (active).

**Q.** Which AC50 does the source give for `CCc1nc(N2CCN(Cc3ccc4c(c3)OCO4)CC2)c2oc3ccccc3c2n1` here?
**A.** The AC50 was 2.71 µM (active).

Target: T3, Heat shock factor protein 1 (Mus musculus, UniProt P38532)
T3 sequence (P38532 whole entry): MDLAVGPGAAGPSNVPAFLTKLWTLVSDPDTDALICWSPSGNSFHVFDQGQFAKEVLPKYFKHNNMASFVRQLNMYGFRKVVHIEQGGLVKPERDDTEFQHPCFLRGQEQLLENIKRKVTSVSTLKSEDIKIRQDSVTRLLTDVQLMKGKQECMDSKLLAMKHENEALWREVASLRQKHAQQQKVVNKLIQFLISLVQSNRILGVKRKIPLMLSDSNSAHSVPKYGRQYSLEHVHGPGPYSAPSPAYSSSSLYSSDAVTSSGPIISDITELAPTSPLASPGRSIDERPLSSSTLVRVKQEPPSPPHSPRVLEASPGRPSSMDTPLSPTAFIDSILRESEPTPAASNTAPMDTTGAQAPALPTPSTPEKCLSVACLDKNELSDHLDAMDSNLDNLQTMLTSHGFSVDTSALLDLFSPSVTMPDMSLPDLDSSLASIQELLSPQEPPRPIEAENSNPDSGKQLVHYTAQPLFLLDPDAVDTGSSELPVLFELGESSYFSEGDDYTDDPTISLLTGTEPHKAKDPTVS
Assay: inhibition of MG132-induced HSE-luciferase signal, confirmation, cell-based, NIH3T3, luminescence, dose retest (AID 2382);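 also: NIH3T3 fibroblasts with HSF1-driven luciferase reporter stressed by proteasome inhibitor MG132; luminescence from HSF1-driven luciferase expression after 8 hours of MG132 stress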
Format: functional
Conditions: not given

**Q.** For `CCCCOC(=O)CSCC(=O)Nc1cc(C)on1`, which EC50 is on record?
**A.** The EC50 was > 195 µM (not active).
